Test results: patent publication US8222278B2, “Treatment of attention-deficit/hyperactivity disorder” (Abbott Laboratories, priority 2008, dated 2012)

Assays:
[1] = test system: adults with ADHD; experiment: Study A: weight and vital signs; type: in vivo, human; details: Atomoxetine 40 mg BID, final evaluation (LOCF)
Experimental: The treatment group differences in vital signs were analyzed using a Grizzle Model similar to the model used for the efficacy analyses with the exclusion of period-specific baselines.

[2] = test system: adults with ADHD; experiment: Study A: patient-reported health outcomes (AAQoL, WPAI); type: in vivo, human; set-up: WPAI Absenteeism (employed), Mean Diff. / WPAI Impaired Work Effectiveness (employed), Mean Diff. / AAQoL Total, Mean Diff. / WPAI Overall Activity Impairment (all), Mean Diff. / WPAI Overall Work Impairment (employed), Mean Diff.: scale not given here; details: ATX 40 mg BID
Experimental: (§1) A clinical study (Study A) was conducted to assess the safety and efficacy of ABT-894 compared to placebo in adults with ADHD and to evaluate the dose-response relationship.
(§2) Subjects in each dose group received, in random order, both ABT-894 and placebo according to a 2×2 crossover design. Each treatment period was 4 weeks separated by a 2-week washout period.
(§3) Secondary efficacy endpoints included the CAARS:Inv Inattentive and Hyperactive/Impulsive Subscale Scores, Clinical Global Impression-ADHD-Severity Scale (CGI-ADHD-S). Adult ADHD Investigator Symptom Report Scale (AISRS), including total and subscales, and the Self-rated Connors Adult ADHD Rating Scale (CAARS-Self). Health outcomes including the Adult ADHD Quality of Life Scale (AAQoL) and Work Productivity and Activity Impairment Questionnaire (WPAI) were used to evaluate the validity of these scales in this study population for use in subsequent clinical trials.

[3] = test system: adults with ADHD; experiment: Study A: ABT-894 Adult ADHD Dose-Ranging crossover clinical study, efficacy rating scales; type: in vivo, human; details: Atomoxetine 40 mg BID
Experimental: as §1
A total of 243 subjects aged 18 to 60 years old meeting DSM-IV-TR criteria for ADHD were randomized across the 5 dose groups. Male or female patients were included. […] The disposition of the study subjects is further discussed with the study results below.
as §2
Each site was assigned to one of two cohorts (Cohort A or Cohort B) in approximately a 3:2 ratio. Subjects in Cohort A were randomized in equal proportions to one of 6 treatment sequences in 3 dose groups, and subjects in Cohort B were randomized in equal proportions to one of 4 treatment sequences in 2 dose groups, as shown in Table 1. Within each dose group subjects received either ABT-894 or atomoxetine in Period 1 and placebo in Period 2, or placebo in Period 1 and ABT-894 or atomoxetine in Period 2.
The study medication was dispensed in the form of a capsule. Each capsule contained ABT-894, atomoxetine, or placebo. The capsules were made to look identical.
The primary efficacy endpoint was the Conners' Adult ADHD Rating Scale—Investigator Rated (CAARS:Inv) Total Score (18 items) at the final evaluation of each 4-week treatment period. The CAARS:Inv was assessed at baseline and Days 7. 14. 21, and 28 of each period. Each CAARS:Inv item was rated on a 4-point scale of frequency of occurrence (0=not at all, never; 3=very much. very frequently) during the previous 7 days.
as §3
The primary analysis was performed on each dose group separately according to the Statistical Analysis Plan (SAP). The primary statistical model that was used for analyzing the primary efficacy variable, the CAARS:INV total score, and all other secondary efficacy variables was determined by a SAP specified testing procedure. The comparability between two sequences for a given dose group with respect to the difference between period-specific baselines was tested using a one-way ANCOVA with the term of treatment and the Period I baseline as the covariate at the significance level of 0.10. The equal residual effect from Period I to Period II between two different sequences for a given dose group was tested using a standard model for cross-over data analysis, Grizzle model, on the term of “sequence” at the significance level of 0.10.
After the study blind was broken, across 5 dose groups. all the tests accepted the null hypothesis that there was no statistically significant treatment effect for the differences between the period-specific baselines. The tests also accepted the null hypothesis that there was no period residual effect in any of the dose groups. Accordingly, the Grizzle model was used as the primary analysis model to analyze treatment group difference for CAARS:INV total score at Day 28 for each dose group. The Grizzle Model was carried out by SAS PROC Mixed with the terms of study center. sequence, subjects within sequence, period, treatment, as well as period-specific baselines as covariates.
The primary efficacy dataset included all subjects who completed both periods of the study (completers dataset). […]

[4] = test system: adults with ADHD; experiment: Study A: treatment-emergent adverse events (safety dataset); details: Atomoxetine 40 mg BID, N = 50
Experimental: During each visit, blood pressure, heart rate, weight, medication accountability and tolerability, and adverse effects were assessed.
The safety dataset consisted of all subjects who took at least one dose of study drug. The reasons for discontinuation and the treatment-emergent adverse events were summarized by the treatment under which the discontinuation or event was reported.
Treatment-emergent adverse events were those that began or worsened following the first dose of study drug in Period 1. Adverse event monitoring was conducted at each study visit and until 30 days following discontinuation of study drug. Other routine safety assessments included vital signs, electrocardiograms, physical examinations, brief neurological examinations and laboratory tests.

SMILES: CNCC[C@@H](Oc1ccccc1C)c1ccccc1 [Atomoxetine, (3R)-N-methyl-3-(2-methylphenoxy)-3-phenyl-propan-1-amine, reference compound]
- Diastolic BP, mean difference from placebo [1]: 0.72 mm Hg
- Pulse, mean difference from placebo [1]: 4.74 bpm
- Systolic BP, mean difference from placebo [1]: 1.16 mm Hg
- Weight, mean difference from placebo [1]: -0.73 kg
- WPAI Absenteeism (employed), Mean Diff. ([2]; N 18): 0.019
- WPAI Impaired Work Effectiveness (employed), Mean Diff. ([2]; N 18): −0.143
- WPAI Overall Work Impairment (employed), Mean Diff. ([2]; N 18): −0.12
- WPAI Overall Activity Impairment (all), Mean Diff. ([2]; N 36): −0.13
- AAQoL Total, Mean Diff. ([2]; N 40): 7.23
- AISRS Hyperactivity Score, mean difference from placebo ([3]; day 28, completers): −3.29 (−5.4, −1.2)
- AISRS Inattention Score, mean difference from placebo ([3]; day 28, completers): −3.81 (−6.1, −1.6)
- AISRS Total Score, mean difference from placebo ([3]; day 28, completers): −7.18 (−11.5, −2.9)
- CAARS:Self ADHD Index, mean difference from placebo ([3]; day 28, completers): −3.08 (−4.8, −1.3)
- CAARS:Self Hyperactivity Score, mean difference from placebo ([3]; day 28, completers): −1.43 (−2.4, −0.5)
- CAARS:Self Impulsivity Score, mean difference from placebo ([3]; day 28, completers): −1.17 (−1.9, −0.5)
- CAARS:Self Inattention/Memory Score, mean difference from placebo ([3]; day 28, completers): −1.56 (−2.5, −0.6)
- CAARS:Self Problem with Self-concept Score, mean difference from placebo ([3]; day 28, completers): −0.70 (−1.5, 0.1)
- CAARS:Self Total Score, mean difference from placebo ([3]; day 28, completers): −7.12 (−10.9, −3.3)
- CGI-ADHD-S, mean difference from placebo ([3]; day 28, completers): −0.45 (−0.8, −0.1)
- CAARS:Inv ADHD Index, mean difference from placebo ([3]; day 28, completers N = 40): −3.00 (−4.9, −1.1)
- CAARS:Inv Hyperactive/Impulsive subscale score, mean difference from placebo ([3]; day 28, completers N = 40): −1.43 (−2.4, −0.4)
- CAARS:Inv Inattentive subscale score, mean difference from placebo ([3]; day 28, completers N = 40): −3.89 (−6.3. −1.5)
- CAARS:Inv Total Score, mean difference from placebo ([3]; day 28, completers N = 40): −7.98 (−12.5. −3.5)
- Any Adverse Event, % of subjects [4]: (82.0) %
- Any Adverse Event, number of subjects [4]: 41 subjects
- Decreased appetite, % of subjects [4]: (12.0) %
- Decreased appetite, number of subjects [4]: 6 subjects
- Diarrhea, % of subjects [4]: (2.0) %
- Diarrhea, number of subjects [4]: 1 subjects
- Dizziness, % of subjects [4]: (8.0) %
- Dizziness, number of subjects [4]: 4 subjects
- Dry mouth, % of subjects [4]: (6.0) %
- Dry mouth, number of subjects [4]: 3 subjects
- Fatigue, % of subjects [4]: (12.0) %
- Fatigue, number of subjects [4]: 6 subjects
- Feeling hot and cold, % of subjects [4]: (6.0) %
- Feeling hot and cold, number of subjects [4]: 3 subjects
- Feeling jittery, % of subjects [4]: (6.0) %
- Feeling jittery, number of subjects [4]: 3 subjects
- Headache, % of subjects [4]: (14.0) %
- Headache, number of subjects [4]: 7 subjects
- Influenza-like illness, % of subjects [4]: (6.0) %
- Influenza-like illness, number of subjects [4]: 3 subjects
- Lethargy, % of subjects [4]: (6.0) %
- Lethargy, number of subjects [4]: 3 subjects
- Muscle Strain, % of subjects [4]: (0) %
- Muscle Strain, number of subjects [4]: 0 subjects
- Nasal congestion, % of subjects [4]: (4.0) %
- Nasal congestion, number of subjects [4]: 2 subjects
- Nausea, % of subjects [4]: (20.0) %
- Nausea, number of subjects [4]: 10 subjects
- Parathesia, % of subjects [4]: (10.0) %
- Parathesia, number of subjects [4]: 5 subjects
- Sleep disturbances, % of subjects [4]: (16.0) %
- Sleep disturbances, number of subjects [4]: 8 subjects
- Somnolence, % of subjects [4]: (8.0) %
- Somnolence, number of subjects [4]: 4 subjects
- Upper RTI, % of subjects [4]: (4.0) %
- Upper RTI, number of subjects [4]: 2 subjects
- Vomiting, % of subjects [4]: (2.0) %
- Vomiting, number of subjects [4]: 1 subjects
